In patent publication US8791163B2 (McGill University, priority 2006, dated 2014):
Several values for one entry are separate records, joined by “and”; a condition that tells them apart may be missing. Identical values can stand only once.

Legend:
[1] = target: T1, cloned human MT2 receptors (Homo sapiens, UniProt P49286); test: [35S]GTPγS binding assay, NIH3T3 cells expressing human MT2; format: biochemical; settings: maximal net effect relative to MLT
T1 construct: expressed in transfected cells
T1 sequence (P49286 1-362): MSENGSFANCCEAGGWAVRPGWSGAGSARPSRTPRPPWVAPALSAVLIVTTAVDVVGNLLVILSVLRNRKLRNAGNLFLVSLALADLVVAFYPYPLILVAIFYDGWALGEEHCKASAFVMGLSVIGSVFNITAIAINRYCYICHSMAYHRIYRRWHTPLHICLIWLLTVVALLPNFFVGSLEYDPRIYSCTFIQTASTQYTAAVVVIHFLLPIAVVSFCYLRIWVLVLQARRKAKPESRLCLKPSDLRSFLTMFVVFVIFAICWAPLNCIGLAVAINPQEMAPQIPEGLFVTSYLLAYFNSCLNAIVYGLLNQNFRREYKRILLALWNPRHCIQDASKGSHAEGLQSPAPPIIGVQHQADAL

[2] = system: Adult Sprague Dawley rats; test: Elevated plus maze (EPM); format: in vivo, rat; settings: for Head Dips / Percentage of time in Closed Arms / Percentage of time in Open Arms / Total time duration in the Closed Arms / Total time duration in the Open Arms: injected 60 min before test
Description: The maze is comprised of two open arms (50×10 cm) and two closed arms (50×10×40 cm) that extend from a common central platform (10×10 cm). The apparatus, made of wood (painted black) was elevated to a height of 80 cm above floor level. The closed arms are located opposite one another. Behavior is recorded over a period of 5 min using a video camera positioned directly above the maze and rated by an observer blind to drug conditions. The major measure of interest is the amount of time spent in the open arms. As an index of general activity and distribution, the total number of entries into both open and closed arms was also recorded. […] In order to increase the sensitivity of this test to anxiolytic activity, tests are carried out under normal room illumination (25 W bulb).

[3] = system: dorsal raphe 5-HT neurons; test: In vivo electrophysiological recording of 5-HT firing activity; set-up: species or system rat
Description: Serotonin (5-HT) neurons are implicated in the regulation of mood (for a review see Gobbi G, (2005) Inter. Rev. Neurobiology 65: 249-271). The increase in serotonergic neurotransmission is linked to the action of antidepressant drugs. For example fluoxetine (Prozac) increases the 5-HT availability by blocking its […]; mirtazapine (Remeron) increases 5-HT firing activity via an indirect alpha-2 receptor blockade. Consequently, in order to test if compound 5b increases the 5-HT firing activity, in vivo 5-HT neuron activity was recorded after single (40 or 80 mg/kg, subcutaneous) and repeated injections with compound 5b (40 mg/kg, i.p. once a day, for 4 days). For animals treated with a single injection (acute) the recording was done immediately following the injection. For animals treated with repeated injection (sub-chronic) the recording was done 24 hours after the last injection (FIG. 6).
Rats (Sprague-Dawley) were anesthetized with chloral hydrate (400 mg/kg i.p.) and placed in a stereotaxic frame (David Kopf Instruments) with the skull positioned horizontally. To maintain a full anesthetic state in which there is no reaction to a tail or paw pinch, chloral hydrate supplements of 100 mg/kg were given as needed. A burr hole was drilled in the midline, 0.9 to 1.2 mm anterior to interaural zero (Paxinos, G. and Watson, C. (1982); The rat brain in Stereotaxic Coordinates; Academy, Sydney). Dorsal raphe was encountered just below the Sylvius aqueduct, 5.0 to 6.5 mm ventral to dura mater. The dorsal raphe 5-HT neurons, in physiological conditions, were identified according to the following criteria: a slow (0.5-2.5 Hz) and regular firing rate; and a long-duration (0.8-1.2 ms) positive action potential (Baraban and Aghajanian (1980) Neuropharmacology 19, 355-363). Neuronal activity was recorded and processed by a computer connected to CED1401 interface-Spike 2 software (Cambridge Electronic Design, Cambridge, UK).

[4] = 5b 40, 60 and 80 mg/kg, injected 60 min before the test, vs vehicle

COc1cccc(N(CCNC(C)=O)c2ccccc2)c1 [5b, N-{2-[(3-Methoxyphenyl)-phenylamino]ethyl}acetamide]
MT2 IAr ± SEM (relative intrinsic activity) [1]: 0.6 and 0.61 ± 0.04
Head Dips ([2]; 5b 40 mg/kg): 6.30 ± 0.98
Percentage of time in Closed Arms ([2]; 5b 40 mg/kg): 82.30 ± 2.63%
Percentage of time in Open Arms ([2]; 5b 40 mg/kg): 17.7 ± 2.6%
Total time duration in the Closed Arms ([2]; 5b 40 mg/kg): 219.4 ± 9.38 sec/closed arm
Total time duration in the Open Arms ([2]; 5b 40 mg/kg): 47.4 ± 6.86 sec/open arm
Head Dips ([2]; 5b 60 mg/kg): 8.27 ± 1.42
Percentage of time in Closed Arms ([2]; 5b 60 mg/kg): 74.47 ± 4.06 (P = 0.02) %
Percentage of time in Open Arms ([2]; 5b 60 mg/kg): 25.5 ± 4.1 (P = 0.02) %
Total time duration in the Closed Arms ([2]; 5b 60 mg/kg): 199.83 ± 11.33 (P = 0.01) sec/closed arm
Total time duration in the Open Arms ([2]; 5b 60 mg/kg): 68.93 ± 11.02 (P = 0.02) sec/open arm
Head Dips ([2]; 5b 80 mg/kg): 9.91 ± 1.50 (P = 0.02)
Percentage of time in Closed Arms ([2]; 5b 80 mg/kg): 68.18 ± 4.84 (P = 0.007) %
Percentage of time in Open Arms ([2]; 5b 80 mg/kg): 31.8 ± 4.8 (P = 0.003) %
Total time duration in the Closed Arms ([2]; 5b 80 mg/kg): 181.68 ± 14.32 (P = 0.006) sec/closed arm
Total time duration in the Open Arms ([2]; 5b 80 mg/kg): 79.16 ± 12.0 (P = 0.001) sec/open arm
number of head dips (FIG. 4) ([2]; 5b 40, 60 and 80 mg/kg, injected 60 min before the test): increase in the number of head dips
time in the open arms, percentage of time (FIG. 3) [2, 4]: spent more time in the open arms
time in the open arms, total time expressed in seconds (FIG. 2) [2, 4]: spent more time in the open arms
increase of spontaneous activity of 5-HT neurons ([3]; acute single injection 40 mg/kg subcutaneous): 40%
5-HT neuron firing rate ([3]; acute single injection 40 mg/kg subcutaneous (control 0.66 Hz)): 0.93 Hz
increase of spontaneous activity of 5-HT neurons ([3]; acute single injection 80 mg/kg subcutaneous): 106%
5-HT neuron firing rate ([3]; acute single injection 80 mg/kg subcutaneous (control 0.66 Hz)): 1.36 Hz
increase of spontaneous activity of 5-HT neurons ([3]; sub-chronic 40 mg/kg i.p. once a day for 4 days, recorded 24 h after last injection): 133%
5-HT neuron mean firing rate ([3]; sub-chronic 40 mg/kg once a day for 4 days, recorded 24 h after last injection (control 1.2 Hz)): 2.8 Hz and 2.80 Hz
